Data reported in PMC9691366, “Modulating the pharmacokinetic profile of Actinium-225-labeled macropa-derived radioconjugates by dual targeting of PSMA and albumin” (Theranostics, 2022).
pKd: −log10 of the molar value. Marks after values point to notes of the source that are not given here.

Columns and labels:
PSMA = PSMA (Homo sapiens, UniProt Q04609); test: Saturation binding studies on PSMA-positive LNCaP cells; details: 95% confidence interval in brackets; for pKd: on ice
Experimental: The cell binding behavior of the ^225Ac-labeled, 4-(p-iodophenyl)butyrate-containing PSMA radioconjugates [^225Ac]Ac-mcp-M-alb-PSMA and [^225Ac]Ac-mcp-D-alb-PSMA was analyzed in saturation binding studies using PSMA-positive LNCaP cells.
Figure 2 Saturation binding curves for (A) [^225Ac]Ac-mcp-M-alb-PSMA and (B) [^225Ac]Ac-mcp-D-alb-PSMA. Nonspecific binding was determined in the presence of 500 µM unlabeled PSMA-617. Specific binding was calculated as the difference between total and nonspecific binding (n = 3 for each data point).
Saturation binding studies to determine the equilibrium dissociation constants (KD) and the maximum binding capacities (Bmax) were performed as described elsewhere. In short, 30000 LNCaP cells were seeded in 48-well microplates (Greiner Bio-One GmbH, Frickenhausen, Germany) and cultivated for 48 h to allow cell adhesion and growth. During the experiment, cells were kept on ice and all reagents were added ice-cold. The cell culture medium was replaced by PBS (200 µL/well) and the microplates were preincubated for 30 min at 4 °C. The ^225Ac-radioconjugates were added to the wells in a volume of 200 µL at different concentrations (15 pM to 500 nM). The nonspecific binding was assessed in parallel by blocking the LNCaP cells with a 1000-fold excess of unlabeled PSMA-617. After incubation of the microplates for 90 min on ice, the cells were washed three times with ice-cold PBS. The cells were lysed in 0.1 M NaOH containing 1% (w/v) sodium dodecyl sulfate. The activity of cell lysates was measured using an automatic gamma counter (Hidex Deutschland Vertrieb GmbH, Mainz, Germany).

[1] = tested on: LNCaP tumor-bearing SCID mice; format: in vivo, mouse
Experimental: Formalin-fixed and paraffin-embedded mouse tissues were cut in 5 µm sections and immunostained with appropriate antibodies according to standard techniques as well as with standard H&E staining. Antigen retrieval was performed in citrate buffer (pH 6) for all primary antibodies: Ki-67 (clone MIB1, DAKO; dilution 1:200), γH2AX (clone JBW301, Millipore; dilution 1:2500) and PSMA (clone YPSMA-1, Abcam; dilution 1:1000). The presence or absence of necrosis and its percentage in the tumor samples were evaluated by experienced pathologist. […] The data were analyzed using Kruskal-Wallis test followed by Dunn post hoc test using GraphPad Prism version 7.05 (GraphPad Software, San Diego, CA, USA).

[2] = over 7 days
Experimental: The final conjugates mcp-M-alb-PSMA and mcp-D-alb-PSMA were successfully radiolabeled with ^225Ac at a concentration down to 10^-6 M with radiochemical conversions of higher than 99% within 15 min at room temperature and a resulting molar activity of 1 MBq/nmol. The radiolabeled actinium complexes [^225Ac]Ac-mcp-M-alb-PSMA and [^225Ac]Ac-mcp-D-alb-PSMA were characterized regarding decomplexation (by radio-TLC) and degradation (by radio-HPLC). […] Log D values for [^225Ac]Ac-mcp-M-alb-PSMA and [^225Ac]Ac-mcp-D-alb-PSMA were determined at pH 7.4 to be ‑2.4 and -1.7, respectively.
^225Ac was commercially supplied by ITM as [^225Ac]AcCl3. Radiolabeling was performed using 100 kBq ^225Ac, the respective ligand stem solution (10^-2 M - 10^-6 M) to reach the required ligand concentration (10^-3 M - 10^-7 M), the necessary amount of 2,5-dihydroxybenzoic acid (final concentration 0.1 M) and a volume of 0.2 M NH4OAc (pH 6) to adjust a total volume of 100 µL. […]
Once the labeling reaction was finished, samples were taken out and the ^225Ac-radioconjugates were analyzed via TLC (two systems: 1 - 0.05 M EDTA (pH 7) on silica plates; 2 - 70/30 acetonitrile/H2O on alugram RP-CN plates) and analytical HPLC on a Jasco HPLC system with GABI analyzer (Elysia Raytest) for gamma detection on a Phenomenex Phenyl-Hexyl column in water/acetonitrile (0.1% TFA each).

LNCaP cells = test: Clonogenic survival assay; format: cell-based, human; details: for inhibition of colony formation: 1 h exposure; for EC50 for 1 h treatment: clonogenic survival of LNCaP cells, 95% confidence interval in brackets
Experimental: Figure 3 Clonogenic survival of LNCaP cells after treatment with [^225Ac]Ac-mcp-M-alb-PSMA or [^225Ac]Ac-mcp-D-alb-PSMA for (A) 1 h or (B) 4 h, respectively. Cells were exposed to different activity concentrations of 225Ac-labeled PSMA conjugates for the indicated treatment time and thereafter supplemented with fresh medium. Eight days later, colonies formed were stained and counted by digital analysis. Data points represent the mean colony number of three samples, normalized to values obtained for the untreated reference samples.
Colony formation of LNCaP cells upon exposure to increasing activity concentrations of both ^225Ac-radioconjugates was analyzed as previously reported with slight modifications. Briefly, 6000 LNCaP cells were seeded in 6-well microplates (Greiner Bio-One GmbH, Frickenhausen, Germany) and cultivated overnight to allow cell adhesion. The cell culture medium was replaced by serum-free RPMI-1640 medium (2 mL/well) and the microplates were further incubated at 37 °C. After 1 h, five different activity concentrations (0.05, 0.5, 1, 5, and 50 kBq/mL) of the ^225Ac-radioconjugates were added in triplicate. After 1 or 4 h of incubation at 37 °C, the supernatants were replaced by fresh RPMI-1640 medium with 10% FCS (2 mL/well) and plates were incubated at 37 °C for 8 d. Finally, the cell culture medium was discarded and colonies were stained with 0.5% crystal violet in 50% methanol (1 mL/well) for 30 min, after which the plates were rinsed three times with deionized water and subsequently air-dried. The plates were scanned with an Amersham Typhoon 5 Scanner (Cytiva Europe GmbH, Freiburg, Germany) and the colonies were counted using the Image-Quant TL software (Version 8.1, Cytiva Europe GmbH, Freiburg, Germany).

PSMA, sequence (Q04609 whole entry): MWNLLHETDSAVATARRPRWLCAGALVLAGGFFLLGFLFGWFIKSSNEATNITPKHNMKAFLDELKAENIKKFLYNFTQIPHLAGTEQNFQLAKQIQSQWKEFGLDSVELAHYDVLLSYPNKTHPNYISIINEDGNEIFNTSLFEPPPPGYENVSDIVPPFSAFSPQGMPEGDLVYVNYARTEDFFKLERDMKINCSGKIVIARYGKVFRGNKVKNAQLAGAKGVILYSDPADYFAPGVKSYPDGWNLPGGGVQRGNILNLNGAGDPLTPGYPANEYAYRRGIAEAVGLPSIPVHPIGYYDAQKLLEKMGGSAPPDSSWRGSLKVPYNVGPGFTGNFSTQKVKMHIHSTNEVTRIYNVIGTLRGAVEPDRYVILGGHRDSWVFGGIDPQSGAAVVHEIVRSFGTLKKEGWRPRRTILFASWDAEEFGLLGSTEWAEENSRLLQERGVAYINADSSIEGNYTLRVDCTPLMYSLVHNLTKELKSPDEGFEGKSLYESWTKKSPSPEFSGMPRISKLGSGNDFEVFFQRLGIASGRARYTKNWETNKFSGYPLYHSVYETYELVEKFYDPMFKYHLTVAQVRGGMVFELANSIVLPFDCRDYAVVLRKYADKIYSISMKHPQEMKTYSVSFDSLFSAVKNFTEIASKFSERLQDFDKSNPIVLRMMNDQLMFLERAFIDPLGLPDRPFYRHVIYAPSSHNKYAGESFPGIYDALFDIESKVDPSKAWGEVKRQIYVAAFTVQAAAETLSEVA

Structure (SMILES) | Bmax (PSMA) | pKd (PSMA) | H&E stain of tumor tissue (necrosis) ([1]; 72, 120 and 168 h p.i.) | average γH2AX histoscore, kidney ([1]; mouse, in vivo) | ^225Ac release (decomplexation, radio-TLC) [2] | inhibition of colony formation (LNCaP cells; 0.05 kBq/mL) | inhibition of colony formation (LNCaP cells; 0.5 kBq/mL) | EC50 for 1 h treatment (LNCaP cells) | Ki67 expression in tumor (cellular proliferation) ([1]; compared to untreated controls) | γH2AX staining of tumor tissue (DNA damage) ([1]; compared to untreated controls) | H&E stain of liver tissue (necrosis) ([1]; mouse, in vivo) | inhibition of colony formation (LNCaP cells; 5 kBq/mL)
O=C(O)CC[C@H](NC(=O)N[C@@H](CCCCNC(=O)[C@H](Cc1ccc2ccccc2c1)NC(=O)[C@H]1CC[C@H](CNC(=O)[C@H](CCCCn2cc(COc3cc(CN4CCOCCOCCN(Cc5cc(OCc6cn(CCCC[C@H](NC(=O)[C@H](CCC(=O)O)NC(=O)CCCc7ccc(I)cc7)C(=O)NC[C@H]7CC[C@H](C(=O)N[C@@H](Cc8ccc9ccccc9c8)C(=O)NCCCC[C@H](NC(=O)N[C@@H](CCC(=O)O)C(=O)O)C(=O)O)CC7)nn6)cc(C(=O)O)n5)CCOCCOCC4)nc(C(=O)O)c3)nn2)NC(=O)[C@H](CCC(=O)O)NC(=O)CCCc2ccc(I)cc2)CC1)C(=O)O)C(=O)O [[^225Ac]Ac-mcp-D-alb-PSMA, metal not drawn] | 1.96 (1.89 to 2.04)^# pmol/mg of protein | 7.94 | necrotic lesions in the group 72 h p.i. | 99 | did not show any ^225Ac release | about 50% | virtually abrogated clonogenic activity | 0.0519 (0.0353 to 0.0753)^# kBq/mL |  |  |  | 
O=C(O)CC[C@H](NC(=O)N[C@@H](CCCCNC(=O)[C@H](Cc1ccc2ccccc2c1)NC(=O)[C@H]1CC[C@H](CNC(=O)[C@H](CCCCn2cc(COc3cc(CN4CCOCCOCCN(Cc5cccc(C(=O)O)n5)CCOCCOCC4)nc(C(=O)O)c3)nn2)NC(=O)[C@H](CCC(=O)O)NC(=O)CCCc2ccc(I)cc2)CC1)C(=O)O)C(=O)O [[^225Ac]Ac-mcp-M-alb-PSMA, metal not drawn] | 0.46 (0.43 to 0.49)^# pmol/mg of protein | 7.63 |  | 62 | did not show any ^225Ac release |  | about 50% | 0.5233 (0.4010 to 0.6767)^# kBq/mL | did not show any significant decrease in proliferation | significant DNA damage in tumor cells | significant necrosis | almost complete inhibition of colony formation
